Ends that are not written are not given here.
Tested on: NisP
Assay: Leader peptide cleavage of pre-nisin variants by NisP (RP-HPLC)
Assay type: biochemical, Lactococcus lactis
Conditions: in vitro cleavage of the leader peptide from purified pre-nisin (variant) by purified secreted NisP, overnight at 8 °C, integration of leader peptide peaks
From the text: Step IV concerns leader peptide cleavage and thereby activation of the purified pre-nisin variants. Here, we used the secreted variant of the natural leader peptidase NisP, by which the leader peptide is cleaved in vitro and the cleavage efficiency (%) can be calculated as recently shown. We used an RP-HPLC set-up to monitor product formation, in which the appearance of the leader peptide in the chromatograms was used to determine the concentration of activated nisin (Supplementary Fig. S3). […] The nisin core peptide eluted at a later retention time of approximately 23 min (Supplementary Fig. S3). […] However, in the case of the I1 mutants I1A, I1G, I1T, I1S, I1K, I1R, I1H, I1Q, I1E, I1N and I1D) the formation of a core peptide peak in terms of a new and separated peak in the chromatogram was not observed (Supplementary Fig. S4). Rather, the peaks with a retention time between 18–21 min contained both species, the cleaved and non-cleaved lantibiotic, and can therefore not be deconvoluted for proper determination of the amount of activated nisin. […] The concentration was calculated based on a standard calibration curve (Supplementary Fig. S5), where we precisely determined the concentration of the activated nisin or I1 mutants. We used this concentration determination instead of the colorimetric protein concentration determination as for example Bradford or the BCA-assay since the latter two assays cannot differentiate between the activated and non-activated form of the secreted variants. Since nisin is not active unless the leader is cleaved off, the determination of the area of the leader peak to calculate the amount of the activated lantibiotic directly relates to the antimicrobial activity without need to further purify the peptide after cleavage.
All I1 mutations were subjected to NisP cleavage and most of the variants were cleaved, but a strong influence of the nature of the I1 substitutions with respect to cleavage efficiency was observed (Supplementary Fig. S6). The cleavage efficiency for wild type pre-nisin A was 94.3 ± 1.7% but lower for the mutants I1M, I1L, I1A and I1V (72.3 ± 1.4%, 72.4 ± 1.3%, 81.0 ± 1.8% and 58.1± 2.8%, respectively). […] This holds especially in those cases, where the amino acid at position one was exchanged to a charged amino acid (e.g. I1K 9.2 ± 1.3%; I1E 9.5 ± 0.7%) or contained a bulky hydrophobic side chain (e.g. I1F 12.9 ± 0.8%; I1W 5.7 ± 0.2%; I1Y 22.6 ± 2.3%) (Supplementary Fig. S6). […] Even after an extensive prolongation of the incubation time, no leader peptide peak was detected in the RP-HPLC chromatogram (Supplementary Fig. S4). It is important to stress in this context that the cleavage efficiencies cannot be determined from Tricine-SDS gels (20%). Here, the leader peptide as well as the core peptide would co-migrate, which obviously will falsify the staining results.
Pre-nisin and its variants were expressed and purified as previously described[41],[49],[69]. The purity of pre-nisin and its variants was controlled by Tricine-SDS-PAGE (20%)[70]. The activation of all variants was performed by NisP cleavage overnight at 8 °C. Pre-nisin cleavage and its variants was monitored by RP-HPLC[49],[69].
Pre-nisin and the activated nisin variants were analysed by RP-HPLC (Agilent Technologies 1260 Infinity II) with a LiChrospher WP 300 RP-18 end-capped column and an acetonitrile/water solvent system. The cleavage efficiency and the concentration of active lantibiotic was calculated as described previously[49],[69].

| Molecule | cleavage efficiency by NisP |
| --- | --- |
| C=C(NC(=O)[C@@H](NC(=O)[C@H](Cc1c[nH]cn1)NC(=O)[C@@H](NC(=O)[C@H](CO)NC(=O)[C@@H]1CS[C@@H](C)[C@H]2NC(=O)[C@H](C)NC(=O)[C@H](NC(=O)[C@H](CCCCN)NC(=O)[C@H](CCSC)NC(=O)[C@H](CC(N)=O)NC(=O)[C@@H]3CS[C@@H](C)[C@@H](NC(=O)[C@H](CCCCN)NC(=O)[C@@H]4CS[C@@H](C)[C@@H](NC(=O)[C@@H]5CSC[C@@H](NC(=O)/C(=C/C)NC(=O)[C@@H](N)CC(C)C)C(=O)N[C@@H]([C@@H](C)CC)C(=O)NC(=C)C(=O)N[C@@H](CC(C)C)C(=O)N5)C(=O)N5CCC[C@H]5C(=O)NCC(=O)N4)C(=O)NCC(=O)N[C@@H](C)C(=O)N[C@@H](CC(C)C)C(=O)N[C@@H](CCSC)C(=O)NCC(=O)N3)[C@H](C)SC[C@H](NC2=O)C(=O)N[C@@H](Cc2c[nH]cn2)C(=O)N1)[C@@H](C)CC)C(C)C)C(=O)N[C@@H](CCCCN)C(=O)O [I1L] | 72.4 ± 1.3% |
| C=C(NC(=O)[C@@H](NC(=O)[C@H](Cc1c[nH]cn1)NC(=O)[C@@H](NC(=O)[C@H](CO)NC(=O)[C@@H]1CS[C@@H](C)[C@H]2NC(=O)[C@H](C)NC(=O)[C@H](NC(=O)[C@H](CCCCN)NC(=O)[C@H](CCSC)NC(=O)[C@H](CC(N)=O)NC(=O)[C@@H]3CS[C@@H](C)[C@@H](NC(=O)[C@H](CCCCN)NC(=O)[C@@H]4CS[C@@H](C)[C@@H](NC(=O)[C@@H]5CSC[C@@H](NC(=O)/C(=C/C)NC(=O)[C@@H](N)C(C)C)C(=O)N[C@@H]([C@@H](C)CC)C(=O)NC(=C)C(=O)N[C@@H](CC(C)C)C(=O)N5)C(=O)N5CCC[C@H]5C(=O)NCC(=O)N4)C(=O)NCC(=O)N[C@@H](C)C(=O)N[C@@H](CC(C)C)C(=O)N[C@@H](CCSC)C(=O)NCC(=O)N3)[C@H](C)SC[C@H](NC2=O)C(=O)N[C@@H](Cc2c[nH]cn2)C(=O)N1)[C@@H](C)CC)C(C)C)C(=O)N[C@@H](CCCCN)C(=O)O [I1V] | 58.1± 2.8% |
| C=C(NC(=O)[C@@H](NC(=O)[C@H](Cc1c[nH]cn1)NC(=O)[C@@H](NC(=O)[C@H](CO)NC(=O)[C@@H]1CS[C@@H](C)[C@H]2NC(=O)[C@H](C)NC(=O)[C@H](NC(=O)[C@H](CCCCN)NC(=O)[C@H](CCSC)NC(=O)[C@H](CC(N)=O)NC(=O)[C@@H]3CS[C@@H](C)[C@@H](NC(=O)[C@H](CCCCN)NC(=O)[C@@H]4CS[C@@H](C)[C@@H](NC(=O)[C@@H]5CSC[C@@H](NC(=O)/C(=C/C)NC(=O)[C@@H](N)Cc6ccc(O)cc6)C(=O)N[C@@H]([C@@H](C)CC)C(=O)NC(=C)C(=O)N[C@@H](CC(C)C)C(=O)N5)C(=O)N5CCC[C@H]5C(=O)NCC(=O)N4)C(=O)NCC(=O)N[C@@H](C)C(=O)N[C@@H](CC(C)C)C(=O)N[C@@H](CCSC)C(=O)NCC(=O)N3)[C@H](C)SC[C@H](NC2=O)C(=O)N[C@@H](Cc2c[nH]cn2)C(=O)N1)[C@@H](C)CC)C(C)C)C(=O)N[C@@H](CCCCN)C(=O)O [I1Y] | 22.6 ± 2.3% |
| C=C(NC(=O)[C@@H](NC(=O)[C@H](Cc1c[nH]cn1)NC(=O)[C@@H](NC(=O)[C@H](CO)NC(=O)[C@@H]1CS[C@@H](C)[C@H]2NC(=O)[C@H](C)NC(=O)[C@H](NC(=O)[C@H](CCCCN)NC(=O)[C@H](CCSC)NC(=O)[C@H](CC(N)=O)NC(=O)[C@@H]3CS[C@@H](C)[C@@H](NC(=O)[C@H](CCCCN)NC(=O)[C@@H]4CS[C@@H](C)[C@@H](NC(=O)[C@@H]5CSC[C@@H](NC(=O)/C(=C/C)NC(=O)[C@@H](N)Cc6ccccc6)C(=O)N[C@@H]([C@@H](C)CC)C(=O)NC(=C)C(=O)N[C@@H](CC(C)C)C(=O)N5)C(=O)N5CCC[C@H]5C(=O)NCC(=O)N4)C(=O)NCC(=O)N[C@@H](C)C(=O)N[C@@H](CC(C)C)C(=O)N[C@@H](CCSC)C(=O)NCC(=O)N3)[C@H](C)SC[C@H](NC2=O)C(=O)N[C@@H](Cc2c[nH]cn2)C(=O)N1)[C@@H](C)CC)C(C)C)C(=O)N[C@@H](CCCCN)C(=O)O [I1F] | 12.9 ± 0.8% |
| C=C(NC(=O)[C@@H](NC(=O)[C@H](Cc1c[nH]cn1)NC(=O)[C@@H](NC(=O)[C@H](CO)NC(=O)[C@@H]1CS[C@@H](C)[C@H]2NC(=O)[C@H](C)NC(=O)[C@H](NC(=O)[C@H](CCCCN)NC(=O)[C@H](CCSC)NC(=O)[C@H](CC(N)=O)NC(=O)[C@@H]3CS[C@@H](C)[C@@H](NC(=O)[C@H](CCCCN)NC(=O)[C@@H]4CS[C@@H](C)[C@@H](NC(=O)[C@@H]5CSC[C@@H](NC(=O)/C(=C/C)NC(=O)[C@H](C)N)C(=O)N[C@@H]([C@@H](C)CC)C(=O)NC(=C)C(=O)N[C@@H](CC(C)C)C(=O)N5)C(=O)N5CCC[C@H]5C(=O)NCC(=O)N4)C(=O)NCC(=O)N[C@@H](C)C(=O)N[C@@H](CC(C)C)C(=O)N[C@@H](CCSC)C(=O)NCC(=O)N3)[C@H](C)SC[C@H](NC2=O)C(=O)N[C@@H](Cc2c[nH]cn2)C(=O)N1)[C@@H](C)CC)C(C)C)C(=O)N[C@@H](CCCCN)C(=O)O [I1A] | 81.0 ± 1.8% |
| C=C(NC(=O)[C@@H](NC(=O)[C@H](Cc1c[nH]cn1)NC(=O)[C@@H](NC(=O)[C@H](CO)NC(=O)[C@@H]1CS[C@@H](C)[C@H]2NC(=O)[C@H](C)NC(=O)[C@H](NC(=O)[C@H](CCCCN)NC(=O)[C@H](CCSC)NC(=O)[C@H](CC(N)=O)NC(=O)[C@@H]3CS[C@@H](C)[C@@H](NC(=O)[C@H](CCCCN)NC(=O)[C@@H]4CS[C@@H](C)[C@@H](NC(=O)[C@@H]5CSC[C@@H](NC(=O)/C(=C/C)NC(=O)[C@@H](N)CCC(=O)O)C(=O)N[C@@H]([C@@H](C)CC)C(=O)NC(=C)C(=O)N[C@@H](CC(C)C)C(=O)N5)C(=O)N5CCC[C@H]5C(=O)NCC(=O)N4)C(=O)NCC(=O)N[C@@H](C)C(=O)N[C@@H](CC(C)C)C(=O)N[C@@H](CCSC)C(=O)NCC(=O)N3)[C@H](C)SC[C@H](NC2=O)C(=O)N[C@@H](Cc2c[nH]cn2)C(=O)N1)[C@@H](C)CC)C(C)C)C(=O)N[C@@H](CCCCN)C(=O)O [I1E] | 9.5 ± 0.7% |
| I1P: nisin A variant, position one exchanged to P; pre-peptide not cleaved by NisP (MSTKDFNLDLVSVSKKDSGASPRPTSISLCTPGCKTGALMGCNMKTATCHCSIHVSK; ends and bridges not checked; cysteine pairing not given here; UniProt P13068 1-57, looked up, variant I1P) | not cleaved at all |
| C=C(NC(=O)[C@@H](NC(=O)[C@H](Cc1c[nH]cn1)NC(=O)[C@@H](NC(=O)[C@H](CO)NC(=O)[C@@H]1CS[C@@H](C)[C@H]2NC(=O)[C@H](C)NC(=O)[C@H](NC(=O)[C@H](CCCCN)NC(=O)[C@H](CCSC)NC(=O)[C@H](CC(N)=O)NC(=O)[C@@H]3CS[C@@H](C)[C@@H](NC(=O)[C@H](CCCCN)NC(=O)[C@@H]4CS[C@@H](C)[C@@H](NC(=O)[C@@H]5CSC[C@@H](NC(=O)/C(=C/C)NC(=O)[C@@H](N)CCCCN)C(=O)N[C@@H]([C@@H](C)CC)C(=O)NC(=C)C(=O)N[C@@H](CC(C)C)C(=O)N5)C(=O)N5CCC[C@H]5C(=O)NCC(=O)N4)C(=O)NCC(=O)N[C@@H](C)C(=O)N[C@@H](CC(C)C)C(=O)N[C@@H](CCSC)C(=O)NCC(=O)N3)[C@H](C)SC[C@H](NC2=O)C(=O)N[C@@H](Cc2c[nH]cn2)C(=O)N1)[C@@H](C)CC)C(C)C)C(=O)N[C@@H](CCCCN)C(=O)O [I1K] | 9.2 ± 1.3% |
| C=C(NC(=O)[C@@H](NC(=O)[C@H](Cc1c[nH]cn1)NC(=O)[C@@H](NC(=O)[C@H](CO)NC(=O)[C@@H]1CS[C@@H](C)[C@H]2NC(=O)[C@H](C)NC(=O)[C@H](NC(=O)[C@H](CCCCN)NC(=O)[C@H](CCSC)NC(=O)[C@H](CC(N)=O)NC(=O)[C@@H]3CS[C@@H](C)[C@@H](NC(=O)[C@H](CCCCN)NC(=O)[C@@H]4CS[C@@H](C)[C@@H](NC(=O)[C@@H]5CSC[C@@H](NC(=O)/C(=C/C)NC(=O)[C@@H](N)Cc6c[nH]c7ccccc67)C(=O)N[C@@H]([C@@H](C)CC)C(=O)NC(=C)C(=O)N[C@@H](CC(C)C)C(=O)N5)C(=O)N5CCC[C@H]5C(=O)NCC(=O)N4)C(=O)NCC(=O)N[C@@H](C)C(=O)N[C@@H](CC(C)C)C(=O)N[C@@H](CCSC)C(=O)NCC(=O)N3)[C@H](C)SC[C@H](NC2=O)C(=O)N[C@@H](Cc2c[nH]cn2)C(=O)N1)[C@@H](C)CC)C(C)C)C(=O)N[C@@H](CCCCN)C(=O)O [I1W] | 5.7 ± 0.2% |
